Data as given in article PMC4954948, “Functional and modular analyses of diverse endoglucanases from Ruminococcus albus 8, a specialist plant cell wall degrading bacterium” (Scientific Reports, 2016).

How the values were obtained:
Assay in all cases: isothermal titration calorimetry
Assay type in all cases: binding
Ra2535 TM1 = molecular target: T1, Ra2535 TM1 (Hominimerdicola alba, UniProt E9SAY7); conditions: 25 °C, 50 mM sodium phosphate, 150 mM NaCl, pH 6.5; single site model; read-out: affinity constant (converted)
T1 construct: gene CUS_8100
T1 sequence (E9SAY7 entry or part of it): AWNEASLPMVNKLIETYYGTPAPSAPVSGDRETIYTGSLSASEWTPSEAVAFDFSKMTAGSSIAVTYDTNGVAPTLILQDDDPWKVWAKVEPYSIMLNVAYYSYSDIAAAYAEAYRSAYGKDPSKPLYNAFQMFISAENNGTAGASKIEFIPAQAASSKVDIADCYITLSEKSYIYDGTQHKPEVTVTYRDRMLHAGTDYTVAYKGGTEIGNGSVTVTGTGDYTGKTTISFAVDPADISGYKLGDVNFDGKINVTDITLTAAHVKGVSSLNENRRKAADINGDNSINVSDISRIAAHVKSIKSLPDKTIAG
Source text: isothermal titration calorimetry on Ra2535 TM1 | The affinity constants of Ra2535 TM1 and TM2 for cellopentaose were similar

Ra2535 TM2 = molecular target: T2, Ra2535 TM2 (Hominimerdicola alba, UniProt E9SAY7); conditions: 25 °C, 50 mM sodium phosphate, 150 mM NaCl, pH 6.5; single site model; read-out: affinity constant (converted)
T2 construct: gene CUS_8100
T2 sequence (E9SAY7 entry or part of it): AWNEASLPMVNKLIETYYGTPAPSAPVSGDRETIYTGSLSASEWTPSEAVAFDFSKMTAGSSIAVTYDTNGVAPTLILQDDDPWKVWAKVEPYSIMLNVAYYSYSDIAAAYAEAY
Source text: isothermal titration calorimetry on Ra2535 TM2 | The affinity constants of Ra2535 TM1 and TM2 for cellopentaose were similar

Ra1831 TM1 = molecular target: T3, Ra1831 TM1 (Hominimerdicola alba, UniProt E9SGH0); conditions: 25 °C, 50 mM sodium phosphate, 150 mM NaCl, pH 6.5; weak, parameters not deducible
T3 construct: gene CUS_6389; truncation: C-terminal half of Ra1831 with region of unknown function (CBM65-like) plus CBM37, GH5 domain removed
T3 sequence (E9SGH0 entry or part of it): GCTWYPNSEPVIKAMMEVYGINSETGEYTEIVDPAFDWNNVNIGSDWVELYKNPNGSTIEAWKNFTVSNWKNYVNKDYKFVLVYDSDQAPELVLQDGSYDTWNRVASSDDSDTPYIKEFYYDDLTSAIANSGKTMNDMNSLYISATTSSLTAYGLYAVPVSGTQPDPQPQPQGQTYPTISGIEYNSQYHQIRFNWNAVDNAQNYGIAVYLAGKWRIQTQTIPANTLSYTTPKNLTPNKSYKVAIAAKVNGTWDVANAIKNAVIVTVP

- Kd (Ra2535 TM1): 5.95 µM
- Kd (Ra2535 TM2): 5.95 µM
Structure (SMILES): OC[C@H]1O[C@@H](O[C@H]2[C@H](O)[C@@H](O)[C@H](O[C@H]3[C@H](O)[C@@H](O)[C@H](O[C@H]4[C@H](O)[C@@H](O)[C@H](O[C@H]5[C@H](O)[C@@H](O)C(O)O[C@@H]5CO)O[C@@H]4CO)O[C@@H]3CO)O[C@@H]2CO)[C@H](O)[C@@H](O)[C@@H]1O (stereo partly drawn) [cellopentaose]
- isothermal titration calorimetry (Ra1831 TM1): The representative ITC data for Ra1831 TM1 was not very different from that of TM2
